Patent US5420289A, “Substituted indole-, indene-, pyranoindole- and tetrahydrocarbazole-alkanoic acid derivatives as inhibitors of PLA2 and lipoxygenase” (American Home Products Corporation, priority 1993, dated 1995)

How the values were obtained:
[1] = test system: cyclooxygenase pathway (6-keto-PGF1a); assay: in vivo murine zymosan peritonitis assay, 6-keto-PGF1a (Example 76); set-up: species or system mouse (male CD-1); details: 50 mg/kg p.o.; negative values denote potentiation
Description: (§1) The compounds of the invention are evaluated for their ability to inhibit the lipoxygenase and/or cyclooxygenase pathways of arachidonic acid metabolism in the in vivo murine zymosan peritonitis assay.
(§2) This assay is carried out as follows:
(§3) Male CD-1 mice (8 weeks old) are placed in plastic boxes in groups of six. Animals are injected with 1 mL i.p. of either 1% zymosan in pyrogen free 0.9% saline or saline (unstimulated control). Compounds are dosed orally 1 hour prior to zymosan injection. Twenty minutes after zymosan injection, the mice are asphyxiated by CO2 inhalation and tile peritoneal cavity is lavaged with 2 mL ice cold Hanks Balanced Salt Solution (HBSS) without CaCl2, MgSO4 ·7H2 O and MgCl2 ·6H2 O. Peritoneal lavage fluid from each mouse is removed by syringe and placed in 5 mL plastic test tubes put on ice and volume is noted. […]
(§4) The total metabolite level in lavage fluid/mouse is calculated and the significance is determined by a one-way analysis of variance with LSD comparisons to control (p<0.05). Drug effects are expressed as a percent change from control values.

[2] = test system: cyclooxygenase (PGE2 synthesis) in rat polymorphonuclear leukocytes (PMN); assay: inhibition of PGE2 synthesis (cyclooxygenase) by rat glycogen-elicited PMN (Example 73); format: cell-based, rat (female Wistar); details: Leukocyte, at 10 mM, * (negative) denotes a potentiation, read-out: % Inhibition (PGE2 synthesis)
Summary of the method: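 Glycogen-elicited peritoneal PMNs from female Wistar rats, 2.0×10^7 cells/mL in HBSS with Ca/Mg and 10 mM L-cysteine, preincubated with drug 10 min at 37° C. Stimulated 10 min with A23187 plus [3H]-AA and unlabeled AA (stocks 1 mM); supernatant [3H]-PGE2 measured by reverse-phase HPLC co-chromatographed with reference standard.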

carrageenan paw edema = assay: rat carrageenan paw edema assay (Example 78); format: in vivo, rat (male Sprague-Dawley); details: 50 mg/kg peroral; 3 hours after carrageenan
Description: The compounds of the invention are further tested in the rat carrageenan paw edema assay to determine their ability to inhibit the acute inflammatory response.
This assay is carried out as follows: 140-180 g Male Sprague-Dawley rats, in groups of 6 animals are injected subcutaneously in the right paw with 0.1 mL of 1% carrageenan at zero time. Mercury plethysmographic readings (mL) of the paw are made at zero time and 3 hours later. Test compounds are suspended or dissolved in 0.5% methylcellulose and given perorally 1 hour prior to carrageenan administration.
The increase in paw volume (edema in mL) produced by the carrageenan is measured. Paw edema is calculated (3 hour volume minus zero time volume), and percent inhibition of edema is determined. Unpaired Student's t-test is used to determine statistical significance.

[3] = test system: lipoxygenase pathway (LTC4); assay: in vivo murine zymosan peritonitis assay, LTC4 (Example 76); set-up: species or system mouse (male CD-1); details: 50 mg/kg p.o.; negative values denote potentiation
Description: as §1, §2, §3, §4

[4] = test system: synthesis of LTB4 by rat glycogen-elicited polymorphonuclear leukocytes (PMN); assay: inhibition of LTB4 synthesis by rat glycogen-elicited PMN (Example 72); format: cell-based, rat (female Wistar); details: Leukocyte, at 10 mM, negative number denotes potentiation
Summary of the method: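 Peritoneal PMNs from female Wistar rats 18-24 h after i.p. glycogen, 2.0×10^7 cells/mL in HBSS with Ca/Mg and 10 mM L-cysteine; compound preincubated 10 min at 37° C, then A23187 […] added for 10 min. Supernatant [3H]-LTB4 quantified by radio-HPLC versus drug-free stimulated cells; percent inhibition or IC50.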

| Compound | % Inhibition 6-keto-PGF [1] [%] | inhibition at 10000 µM [2] [%] | % Inhibition 50 mg/kg (peroral) (carrageenan paw edema) | % Inhibition LTC4 [3] [%] | inhibition at 10000 µM [4] [%] |
| --- | --- | --- | --- | --- | --- |
| CCC1(CC(=O)O)CCCc2c1[nH]c1ccc(OCc3ccc4ccccc4n3)cc21 (stereo not shown) [Example 11, 1-Ethyl-2,3,4,9-tetrahydro-6-(2-quinolinylmethoxy)-1H-carbazole-1-acetic acid] | 47 | 80 | +1% | -49 | 95 |
| CC1(CC(=O)O)OCCc2c1[nH]c1ccc(OCc3ccc4ccccc4n3)cc21 (stereo not shown) [Example 10, 1-Methyl-1,3,4,9-tetrahydro-6-(2-quinolinylmethoxy)pyrano[3.4-b]indole-1-acetic acid] | -5 | -41 | 48% | 11 | 91 |
